Tests used:
Assay type in all cases: in vivo
[1] = system: Abutilon theophrasti; assay: Post-emergence herbicidal action against ABUTH (greenhouse pot test); conditions: visual rating after ca. 3 weeks vs untreated controls (100% = plants dead, 0% = like controls)
Description: (§1) Die folgenden Abkürzungen werden für die in den folgenden Tabellen aufgeführten Kultur- und Schadpflanzen verwendet: ABUTH: Abutilon theophrasti ALOMY: Alopecurus myosuroides AMARE: Amaranthus retroflexus BRSNS: Brassica napus DIGSA: Digitaria sanguinalis ECHCG: Echinochloa crus-galli GLXMA: Glycine max KCHSC: Kochia scoparia LOLRI: Lolium rigidum MATIN: Matricaria inodora ORYZA: Oryza sativa PHPBU: Pharbitis purpurea POLCO: Polygonum convolvulus SETVI: Setaria viridis VERPE: Veronica persica VIOTR: Viola tricolor TRZAS: Triticum aestivum ZEAMX: Zea mays
(§2) Samen von mono- bzw. dikotylen Unkrautpflanzen wurden in Kunststoff- oder Holzfasertöpfen in sandigem Lehmboden ausgelegt, mit Erde abgedeckt und im Gewächshaus unter kontrollierten Wachstumsbedingungen angezogen. 2 bis 3 Wochen nach der Aussaat wurden die Versuchspflanzen im Einblattstadium behandelt. Die in Form von benetzbaren Pulvern (WP) oder als Emulsionskonzentrate (EC) formulierten erfindungsgemäßen Verbindungen wurden dann als wässrige Suspension bzw. Emulsion unter Zusatz von 0,5% Additiv mit einer Wasseraufwandmenge von umgerechnet 600 1/ha auf die grünen Pflanzenteile gesprüht. Nach ca. 3 Wochen Standzeit der Versuchspflanzen im Gewächshaus, unter optimalen Wachstumsbedingungen, wurde die Wirkung der Präparate visuell im Vergleich zu unbehandelten Kontrollen bonitiert. Beispielsweise bedeutet 100% Wirkung = Pflanzen sind abgestorben, 0% Wirkung = wie Kontrollpflanzen.
(§3) In den nachstehenden Tabellen A1 bis A11 sind die Wirkungen ausgewählter Verbindungen der allgemeinen Formel (I) gemäß der Tabelle 1 auf verschiedene Schadpflanzen und einer Aufwandmenge entsprechend 80 g/ha und niedriger, die gemäß zuvor genannter Versuchsvorschrift erhalten wurden, dargestellt. Tabelle A1a: Nachauflaufwirkung bei 5 g/ha gegen ABUTH in %

[2] = system: Alopecurus myosuroides; assay: Post-emergence herbicidal action against ALOMY (greenhouse pot test); conditions: visual rating after ca. 3 weeks vs untreated controls (100% = plants dead, 0% = like controls)
Description: as §1, §2, §3

[3] = system: Amaranthus retroflexus; assay: Post-emergence herbicidal action against AMARE (greenhouse pot test); conditions: visual rating after ca. 3 weeks vs untreated controls (100% = plants dead, 0% = like controls)
Description: as §1, §2, §3

[4] = system: Digitaria sanguinalis; assay: Post-emergence herbicidal action against DIGSA (greenhouse pot test); conditions: visual rating after ca. 3 weeks vs untreated controls (100% = plants dead, 0% = like controls)
Description: as §1, §2, §3

[5] = system: Lolium rigidum; assay: Post-emergence herbicidal action against LOLRI (greenhouse pot test); conditions: visual rating after ca. 3 weeks vs untreated controls (100% = plants dead, 0% = like controls)
Description: as §1, §2, §3

[6] = system: Matricaria inodora; assay: Post-emergence herbicidal action against MATIN (greenhouse pot test); conditions: for Nachauflaufwirkung gegen MATIN: visual rating after ca. 3 weeks vs untreated controls (100% = plants dead, 0% = like controls); for Nachauflaufwirkung gegen MATIN in %: 80 g/ha
Description: as §1, §2, §3

[7] = system: Pharbitis purpurea; assay: Post-emergence herbicidal action against PHBPU (greenhouse pot test)
Description: as §1, §2, §3

[8] = system: Polygonum convolvulus; assay: Post-emergence herbicidal action against POLCO (greenhouse pot test)
Description: as §1, §2, §3

[9] = system: Setaria viridis; assay: Post-emergence herbicidal action against SETVI (greenhouse pot test)
Description: as §1, §2, §3

[10] = system: Veronica persica; assay: Post-emergence herbicidal action against VERPE (greenhouse pot test)
Description: as §1, §2, §3

[11] = system: Viola tricolor; assay: Post-emergence herbicidal action against VIOTR (greenhouse pot test)
Description: as §1, §2, §3

[12] = system: Zea mays; assay: Post-emergence action on crop plants, ZEAMX (greenhouse pot test); conditions: 5 g/ha, crop plant
Description: as §1
as §2, with “Kulturpflanzen” for “Unkrautpflanzen”
(§4) In den nachstehenden Tabellen B1 bis B3 sind die Wirkungen ausgewählter Verbindungen der allgemeinen Formel (I) gemäß der Tabelle 1 auf verschiedene Kulturpflanzen und einer Aufwandmenge entsprechend 20 g/ha und niedriger, die gemäß zuvor genannter Versuchsvorschrift erhalten wurden, dargestellt. Tabelle B1a: Nachauflaufwirkung bei 5 g/ha gegen ZEAMX in %

[13] = system: Triticum aestivum; assay: Post-emergence action on crop plants, TRZAS (greenhouse pot test); conditions: crop plant
Description: as §1
as §2, with “Kulturpflanzen” for “Unkrautpflanzen”
as §4

[14] = system: Oryza sativa; assay: Post-emergence action on crop plants, ORYZA (greenhouse pot test); conditions: 5 g/ha
Description: as §1
as §2, with “Kulturpflanzen” for “Unkrautpflanzen”
as §4

Row | SMILES | Nachauflaufwirkung gegen ABUTH ([1]; 5 g/ha) [%] | Nachauflaufwirkung gegen ABUTH ([1]; 20 g/ha) [%] | Nachauflaufwirkung gegen ABUTH ([1]; 80 g/ha) [%] | Nachauflaufwirkung gegen ALOMY ([2]; 20 g/ha) [%] | Nachauflaufwirkung gegen ALOMY ([2]; 80 g/ha) [%] | Nachauflaufwirkung gegen AMARE ([3]; 5 g/ha) [%] | Nachauflaufwirkung gegen AMARE ([3]; 20 g/ha) [%] | Nachauflaufwirkung gegen AMARE ([3]; 80 g/ha) [%] | Nachauflaufwirkung gegen DIGSA ([4]; 5 g/ha) [%] | Nachauflaufwirkung gegen DIGSA ([4]; 20 g/ha) [%] | Nachauflaufwirkung gegen DIGSA ([4]; 80 g/ha) [%] | Nachauflaufwirkung gegen LOLRI ([5]; 80 g/ha) [%] | Nachauflaufwirkung gegen MATIN ([6]; 5 g/ha) [%] | Nachauflaufwirkung gegen MATIN ([6]; 20 g/ha) [%] | Nachauflaufwirkung gegen MATIN in % [6] [%] | Nachauflaufwirkung gegen PHBPU in % ([7]; 5 g/ha) [%] | Nachauflaufwirkung gegen PHBPU in % ([7]; 20 g/ha) [%] | Nachauflaufwirkung gegen PHBPU in % ([7]; 80 g/ha) [%] | Nachauflaufwirkung gegen POLCO in % ([8]; 5 g/ha) [%] | Nachauflaufwirkung gegen POLCO in % ([8]; 20 g/ha) [%] | also measured
1 | COCCOC(=O)C(C)(C)OC(=O)c1cc(-n2c(=O)cc(C(F)(F)F)n(C)c2=O)c(F)cc1Cl [I.1-1] | 100 | 100 | 100 | 100 | 100 | 100 | 100 | 100 | 100 | 100 | 100 | 100 | 100 | 100 | 100 | 80 | 100 | 100 | 100 | 100 | Nachauflaufwirkung gegen LOLRI ([5]; 20 g/ha): 100%; Nachauflaufwirkung gegen POLCO in % ([8]; 80 g/ha): 100%; Nachauflaufwirkung gegen SETVI in % ([9]; 5 g/ha): 100%; Nachauflaufwirkung gegen SETVI in % ([9]; 20 g/ha): 100%; Nachauflaufwirkung gegen SETVI in % ([9]; 80 g/ha): 100%; Nachauflaufwirkung gegen VERPE in % ([10]; 5 g/ha): 100%; Nachauflaufwirkung gegen VERPE in % ([10]; 20 g/ha): 100%; Nachauflaufwirkung gegen VERPE in % ([10]; 80 g/ha): 100%; Nachauflaufwirkung gegen VIOTR in % ([11]; 5 g/ha): 100%; Nachauflaufwirkung gegen VIOTR in % ([11]; 20 g/ha): 100%; Nachauflaufwirkung gegen VIOTR in % ([11]; 80 g/ha): 100%; Nachauflaufwirkung gegen ZEAMX in % [12]: 10%; Nachauflaufwirkung gegen TRZAS in % ([13]; 5 g/ha): 10%; Nachauflaufwirkung gegen ORYZA in % [14]: 20%
2 | CCOCCOC(=O)C(C)(C)OC(=O)c1cc(-n2c(=O)cc(C(F)(F)F)n(C)c2=O)c(F)cc1Cl [I.1-2] | 100 | 100 | 100 | 90 | 100 | 100 | 100 | 100 | 100 | 100 | 100 | 100 | 100 | 100 | 100 | 100 | 100 | 100 | 100 | 100 | Nachauflaufwirkung gegen POLCO in % ([8]; 80 g/ha): 100%; Nachauflaufwirkung gegen SETVI in % ([9]; 5 g/ha): 100%; Nachauflaufwirkung gegen SETVI in % ([9]; 20 g/ha): 100%; Nachauflaufwirkung gegen SETVI in % ([9]; 80 g/ha): 100%; Nachauflaufwirkung gegen VERPE in % ([10]; 5 g/ha): 100%; Nachauflaufwirkung gegen VERPE in % ([10]; 20 g/ha): 100%; Nachauflaufwirkung gegen VERPE in % ([10]; 80 g/ha): 100%; Nachauflaufwirkung gegen VIOTR in % ([11]; 5 g/ha): 100%; Nachauflaufwirkung gegen VIOTR in % ([11]; 20 g/ha): 100%; Nachauflaufwirkung gegen VIOTR in % ([11]; 80 g/ha): 100%; Nachauflaufwirkung gegen ZEAMX in % [12]: 20%; Nachauflaufwirkung gegen TRZAS in % ([13]; 5 g/ha): 10%; Nachauflaufwirkung gegen TRZAS in % ([13]; 20 g/ha): 20%; Nachauflaufwirkung gegen ORYZA in % [14]: 0%
3 | Cn1c(C(F)(F)F)cc(=O)n(-c2cc(C(=O)OC(C)(C)C(=O)OCc3ccccn3)c(Cl)cc2F)c1=O [I.1-286] | 100 | 100 | 100 | 100 | 100 | 100 | 100 | 100 | 100 | 100 | 100 | 100 | 100 | 100 | 100 | 100 | 100 | 100 | 100 | 100 | Nachauflaufwirkung gegen LOLRI ([5]; 20 g/ha): 90%; Nachauflaufwirkung gegen POLCO in % ([8]; 80 g/ha): 100%; Nachauflaufwirkung gegen SETVI in % ([9]; 5 g/ha): 100%; Nachauflaufwirkung gegen SETVI in % ([9]; 20 g/ha): 100%; Nachauflaufwirkung gegen SETVI in % ([9]; 80 g/ha): 100%; Nachauflaufwirkung gegen VERPE in % ([10]; 5 g/ha): 100%; Nachauflaufwirkung gegen VERPE in % ([10]; 20 g/ha): 100%; Nachauflaufwirkung gegen VERPE in % ([10]; 80 g/ha): 100%; Nachauflaufwirkung gegen VIOTR in % ([11]; 5 g/ha): 100%; Nachauflaufwirkung gegen VIOTR in % ([11]; 20 g/ha): 100%; Nachauflaufwirkung gegen VIOTR in % ([11]; 80 g/ha): 100%; Nachauflaufwirkung gegen ZEAMX in % [12]: 20%; Nachauflaufwirkung gegen TRZAS in % ([13]; 5 g/ha): 10%; Nachauflaufwirkung gegen TRZAS in % ([13]; 20 g/ha): 20%; Nachauflaufwirkung gegen ORYZA in % [14]: 0%

Reference: patent EP4230621A1, “SUBSTITUTED N-BENZOIC ACID URACILS, THEIR SALTS AND USE OF SAID COMPOUNDS AS HERBICIDAL AGENTS” (Bayer AG, priority 2022, dated 2023)
